These results are taken from paper PMC10757358 (The Journal of steroid biochemistry and molecular biology, 2023).

Bounds are passed on as bounds.

Assay [1] concerns the target T1, CYP11B1 (Homo sapiens, UniProt P15538).
T1 sequence (P15538 25-503): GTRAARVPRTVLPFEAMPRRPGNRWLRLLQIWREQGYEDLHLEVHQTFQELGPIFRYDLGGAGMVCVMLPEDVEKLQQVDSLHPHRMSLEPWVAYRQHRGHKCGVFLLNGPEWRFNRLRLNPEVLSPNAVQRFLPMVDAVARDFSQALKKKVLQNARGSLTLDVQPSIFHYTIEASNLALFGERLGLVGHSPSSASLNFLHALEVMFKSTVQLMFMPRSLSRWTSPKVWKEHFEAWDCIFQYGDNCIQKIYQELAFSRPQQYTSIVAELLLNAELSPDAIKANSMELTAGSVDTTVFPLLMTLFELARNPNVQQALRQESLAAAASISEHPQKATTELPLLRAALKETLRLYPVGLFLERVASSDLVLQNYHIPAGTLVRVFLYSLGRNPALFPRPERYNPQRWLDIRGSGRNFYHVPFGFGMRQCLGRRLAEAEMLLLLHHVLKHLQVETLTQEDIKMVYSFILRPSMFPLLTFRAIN
In words: biochemical.

For assay [2], the target named is T2, CYP11B2 (Homo sapiens, UniProt P19099).
T2 sequence (P19099 25-503): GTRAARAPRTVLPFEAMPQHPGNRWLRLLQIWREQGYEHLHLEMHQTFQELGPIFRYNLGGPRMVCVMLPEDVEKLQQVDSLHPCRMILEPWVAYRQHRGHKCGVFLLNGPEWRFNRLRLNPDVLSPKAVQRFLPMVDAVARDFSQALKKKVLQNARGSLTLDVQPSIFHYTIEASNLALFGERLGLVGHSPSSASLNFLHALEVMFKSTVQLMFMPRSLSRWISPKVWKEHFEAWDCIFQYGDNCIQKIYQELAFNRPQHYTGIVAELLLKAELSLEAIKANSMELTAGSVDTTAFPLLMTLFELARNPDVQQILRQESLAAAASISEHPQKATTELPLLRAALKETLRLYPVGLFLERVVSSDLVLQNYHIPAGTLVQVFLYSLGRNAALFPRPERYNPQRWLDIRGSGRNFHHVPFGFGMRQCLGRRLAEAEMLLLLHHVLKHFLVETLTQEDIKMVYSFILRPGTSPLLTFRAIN
In words: biochemical.

In assay [3] the test system is NCI-H295R human adrenocortical cancer cell line. The conditions noted are these: NCI-H295R cells.
For assay [4], the target named is T3, CYP11A1 (Homo sapiens, UniProt P05108).
Assay [5] concerns CYP11B1. The conditions noted are these: read-out: reported IC50, CYP11B1; in-vitro studies; cited from earlier work.
Assay [6] relates to CYP11B2. The conditions noted are these: read-out: reported IC50, CYP11B2; in-vitro studies; cited from earlier work.
Assay [7] addresses T3, CYP11A1. In words: biochemical.

T3 sequence (P05108 40-521): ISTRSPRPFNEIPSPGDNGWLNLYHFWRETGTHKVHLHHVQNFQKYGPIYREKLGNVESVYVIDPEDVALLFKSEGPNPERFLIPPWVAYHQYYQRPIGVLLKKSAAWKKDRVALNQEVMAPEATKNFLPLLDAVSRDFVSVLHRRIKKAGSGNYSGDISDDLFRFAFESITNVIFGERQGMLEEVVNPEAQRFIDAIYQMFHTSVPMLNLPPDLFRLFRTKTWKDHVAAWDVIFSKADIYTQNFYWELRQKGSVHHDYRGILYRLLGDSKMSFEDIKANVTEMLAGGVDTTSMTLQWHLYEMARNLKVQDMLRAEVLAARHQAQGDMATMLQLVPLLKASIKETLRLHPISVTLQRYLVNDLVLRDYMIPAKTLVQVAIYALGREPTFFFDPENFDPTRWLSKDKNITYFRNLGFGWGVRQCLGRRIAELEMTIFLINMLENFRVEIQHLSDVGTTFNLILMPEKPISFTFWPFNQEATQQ

One may read the Kd as the concentration at which binding is half-saturated. Turning to `C[C@]12CC[C@H]3[C@@H](CCC4=CC(=O)CC[C@@]43C)[C@@H]1CC[C@@H]2C(=O)CO` [DOC, 11-deoxycorticosterone], the Kd on CYP11B1 [1] amounted to 420 nM; on CYP11B2 [2], 270 nM.

The inhibition is the share of the control response that was lost under treatment. The IC50 is the concentration at which inhibition is half-maximal. In the case of `N#Cc1ccc([C@H]2CCc3cncn32)c(F)c1` [LCI699, Osilodrostat], in assay [3] (0-1000 nM LCI699, 24 h), the “aldosterone production, % of baseline” value turned out to be 2 ± 3%; the androstenedione level result is listed as “remained unchanged”; the “corticosterone, % of the baseline” value amounted to 1 ± 2%; the “cortisol production, % of baseline” value was determined as 13 ± 4%. Further, the 11-deoxycortisol level entry in assay [3] (higher concentrations of LCI699, changes did not reach statistical significance) is “appeared to increase”. At CYP11A1 [4], this compound had an inhibition of under 25%. In the assay with CYP11B1 [5], the IC50 was […]. In addition, the IC50 in the assay with CYP11B2 [6] was […]. This compound displayed a Kd at CYP11A1 [7] of 18800 nM.
